Assay results reported in US11945787B2, “Substituted imidazoles for preventing and/or treating cell or tissue necrosis” (Ela Pharma Ltd, priority 2015, dated 2024).
Where a SMILES comes first, the peptide text is derived from it. The star is where a group is joined. CHN2 = [N-]=[N+]=C*

Tested on: PC12 cells
Assay: KCN-induced necrosis of PC12 cells, LDH release
Type: cell-based, rat
Settings: for inhibition at 0.0001 µM / inhibition at 0.001 µM / inhibition at 0.01 µM / inhibition at 0.1 µM / inhibition at 1 µM: Rattus norvegicus, PC-12, 5 h, KCN, PC12, LDH release (Table 5); for inhibition at 0.0001 µM / % protection at indicated concentration 0.1 nM: 0.1 nM; for inhibition at 0.0001 µM: read-out: % protection at 0.1 nM; for inhibition at 0.001 µM / % protection at indicated concentration 1 nM: 1 nM; for inhibition at 0.001 µM: read-out: % protection at 1 nM; for inhibition at 0.01 µM / % protection at indicated concentration 10 nM: 10 nM; for inhibition at 0.01 µM: read-out: % protection At 10 nM; for inhibition at 0.1 µM: read-out: % protection at 0.1 μM; for inhibition at 1 µM: read-out: % protection at 1 μM; for KCN-induced necrotic cell death assessed by LDH release: PC12, KCN 5 hours, FIGS. 6, 7A-B
Experimental: The rat pheochromocytoma PC12 cell line was propagated in DMEM medium (Beit Haemek, Israel), supplemented with 5% heat-inactivated calf serum, 10% heat-inactivated horse serum, 2 mM L-glutamine, 100 U/ml penicillin and 100 μg/ml streptomycin. PC12 cells in logarithmic phase were seeded at a concentration of 1.2×10^5/well in 96-well plates and incubated overnight.
Thereafter, the cells were washed twice and maintained in RPMI-1640 (U-937cells) and DMEM (PC-12 cells) glucose-free medium, supplemented with 2 mM pyruvate and 10% dialyzed FCS for one hour. Then cells were treated with or without KCN (Merck, Germany) at the indicated concentrations for 7 hours (U-937 cells), or for 5 hours (PC12 cells).
Elastase inhibitors II (MeOSuc-AAPA-CMK) and elastase inhibitor III (MeOSuc-AAPV-CMK) were purchased from Calbiochem-Novabiochem, USA. Compound Gly-Phe diazomethylketone was purchased from MP Biomedicals, USA. All the compounds disclosed in Table 1 hereinabove were purchased from ChemDiv, San Diego, CA. The compounds were dissolved in DMSO and were administered 30 min before addition of the cell death inducer. The final concentration of DMSO, added to all samples, was 0.1%, which had no effect by itself siRNA and cell transfection
The amount of LDH released from lysed cells is a sensitive measure of cell death. Necrotic cell death was measured in 96-well plates using Promega CytoTox 96 LDH assay kit. LDH content from the cells lysed in 0.1% Triton X-100 for 10 min was used as an index of total LDH. The LDH released in culture medium was used as an index of necrotic cell death and the percentage from total LDH was calculated. The protection by the inhibitor was calculated based on comparing percentage of LDH release in the presence and in the absence of the inhibitor. The inhibitors were also added to totals, blanks and controls. Absorbance at 490 nm was measured by ELISA reader (BioTec).
These compounds were tested for their ability to inhibit necrosis induced by KCN in PC12 cells. The necrotic mode of cell death in this system was validated as previously described. PC12 cells were challenged with KCN as described above. The protective results of the compounds against KCN-induced necrosis assessed using LDH release method are shown below in Table 5. The IC50 values of these inhibitors is in the range of tens to single nanomolar.

Compound	inhibition at 0.0001 µM	inhibition at 0.001 µM	inhibition at 0.01 µM	inhibition at 0.1 µM	inhibition at 1 µM	further results
O=C(c1ccco1)N1CCN=C1N1CCCC1 [M059-0032, furan-2-yl(2-(pyrrolidin-1-yl)-4,5-dihydro-1H-imidazol-1-yl)methanone]	7%	25%	37%	59%	72%	
Cn1c(-c2c(C(C)(C)C)oc3cc(OC(=O)C(C)(C)C)ccc3c2=O)nc2ccccc21 [4356-0595, 2-(tert-butyl)-3-(1-methyl-1H-benzo[d]imidazol-2-yl)-4-oxo-4H-chromen-7-yl pivalate]	4%	21%	36%	57%	69%	
O=C(O)c1nc2ncccn2n1 [R052-2664, [1,2,4]triazolo[1,5-a]pyrimidine-2-carboxylic acid]			21%	49%	50%	
Cc1[nH]c(=O)[nH]c(=O)c1S(=O)(=O)N1CCCCC1C (stereo not drawn) [E214-0380, 6-methyl-5-((2-methylpiperidin-1-yl)sulfonyl)pyrimidine-2,4(1H,3H)-dione]	18%	21%	39%	51%	83%	
O=C(O)c1cccc(S(=O)(=O)N2CCCC2)c1 [3506-0172, 3-(pyrrolidin-1-ylsulfonyl)benzoic acid]			18%	19%	52%	
CNC(=O)c1n[nH]c2c1CCCCCC2 [Z632-6109, N-methyl-4,5,6,7,8,9-hexahydro-1H-cycloocta[c]pyrazole-3-carboxamide]	26%	25%	40%	70%	81%	
O=C(NCCNC(=O)c1nc(Cn2cc(Cl)cn2)no1)c1cccc(F)c1 [8019-5381, 3-((4-chloro-1H-pyrazol-1-yl)methyl)-N-(2-(3-fluorobenzamido)ethyl)-1,2,4-oxadiazole-5-carboxamide]			32%	49%	56%	
CC(C)N1CCN(C(=O)CN2C(=O)C3CCCN3C(=O)c3cc(F)ccc32)CC1 (stereo not drawn) [M284-0488, 7-fluoro-10-(2-(4-isopropylpiperazin-1-yl)-2-oxoethyl)-2,3-dihydro-1H-benzo[e]pyrrolo[1,2-a][1,4]diazepine-5,11(10H,11aH)-dione]	35%	51%	82%	72%	80%	
CCc1ccccc1S(=O)(=O)Nc1ccc(N2CCN(CC)CC2)cc1C(=O)O [F684-0507, 2-(2-ethylphenylsulfonamido)-5-(4-ethylpiperazin-1-yl)benzoic acid]					56%	
CC1Cc2ccccc2N1S(=O)(=O)c1ccc(C(=O)O)cc1 (stereo not drawn) [D216-0746, 4-((2-methylindolin-1-yl)sulfonyl)benzoic acid]	29%	37%	47%	84%	90%	
CCOC(=O)C1=C(C)N(CC(=O)NCc2ccc(C)cc2)c2ncnn2C1c1ccccc1 (stereo not drawn) [D529-0049, ethyl 5-methyl-4-(2-((4-methylbenzyl)amino)-2-oxoethyl)-7-phenyl-4,7-dihydro-[1,2,4]triazolo[1,5-a]pyrimidine-6-carboxylate]			33%	42%	51%	
CC(C)c1cc(C2CCCN2C(=O)C2CC2)no1 (stereo not drawn) [Z632-2266, cyclopropyl(2-(5-isopropylisoxazol-3-yl)pyrrolidin-1-yl)methanone]	13%	22%	46%	78%	93%	
O=C(CN1C(=O)C2CCCN2C(=O)c2ccc(F)cc21)Nc1ccc(F)c(F)c1 (stereo not drawn) [M284-0942, N-(3,4-difluorophenyl)-2-(8-fluoro-5,11-dioxo-2,3,11,11a-tetrahydro-1H-benzo[e]pyrrolo[1,2-a][1,4]diazepin-10(5H)-yl)acetamide]				52%		
[N-]=[N+]=CC(=O)[C@H](Cc1ccccc1)NC(=O)CN [Gly-Phe-DMK, Gly-Phe-diazomethylketone, reference compound] (H-Gly-Phe-CHN2)						KCN-induced necrotic cell death assessed by LDH release: inhibited cell necrosis
O=C(c1ccccc1Cl)N1CCN=C1N1CCCCC1 [M059-0326, (2-chlorophenyl)-[2-(1-piperidyl)-4,5-dihydroimidazol-1-yl] methanone]						protection of cells at 10 μM (10 μM, KCN-induced necrosis (Table 2)): 10 μM confers protection 56% of cells
O=C(CC1CCCC1)N1CCN=C1N1CCCC1 [M059-0055, 2-cyclopentyl-1-(2-(pyrrolidin-1-yl)-4,5-dihydro-1H-imidazol-1-yl)ethanone]					68%	
O=C(O)Cn1nnc(-c2ccncc2)n1 [8018-2960, 2-(5-(pyridin-4-yl)-2H-tetrazol-2-yl)acetic acid]	38%	25%	54%	80%	84%	
CCN1CCN(c2c(C)c(C)nc3ncnn23)CC1 [Z606-8336, 7-(4-ethylpiperazin-1-yl)-5,6-dimethyl-[1,2,4]triazolo[1,5-a]pyrimidine]	29%	35%	54%	64%	75%	
COc1cc(C(=O)n2nc(C)cc2C)cc(OC)c1OC [3346-3249, (3,5-dimethyl-1H-pyrazol-1-yl)(3,4,5-trimethoxyphenyl)methanone]					52%	
CCCC(=O)N1CCN=C1N1CCCCC1 [M059-0335, 1-(2-(piperidin-1-yl)-4,5-dihydro-1H-imidazol-1-yl)butan-1-one]					47%	
CN(C)c1ccc(Nc2nc(-c3ccc(Cl)cc3)cs2)cc1 [4112-3656, N1-(4-(4-chlorophenyl)thiazol-2-yl)-N4,N4-dimethylbenzene-1,4-diamine]	30%	25%	55%	73%	77%	% protection at indicated concentration 0.1 nM (KCN-induced necrosis (Table 2)): 30%; % protection at indicated concentration 1 nM (KCN-induced necrosis (Table 2)): 25%; % protection at indicated concentration 10 nM (KCN-induced necrosis (Table 2)): 55%; % protection at indicated concentration 100 nM (KCN-induced necrosis (Table 2)): 73%; % protection at indicated concentration 1 μM (KCN-induced necrosis (Table 2)): 77%
O=C1C(NS(=O)(=O)c2ccc(Cl)s2)CCN1c1ccccc1 (stereo not drawn) [P316-0028, 5-chloro-N-(2-oxo-1-phenylpyrrolidin-3-yl)thiophene-2-sulfonamide]			43%	49%	53%	
c1ccc(-c2noc(CC3CCCCC3)n2)nc1 [4953-1443, 5-(cyclohexylmethyl)-3-(pyridin-2-yl)-1,2,4-oxadiazole]					51%	
CC(C)C[C@H](NC(=O)N[C@H](C(=O)N[C@@H](CCC(N)=O)C(=O)N[C@@H](C)C=O)[C@@H]1CCNC(=N)N1)C(=O)O [elastatinal, reference compound]						KCN-induced necrotic cell death assessed by LDH release: no protective effect
O=S1(=O)N=C(NCCN2CCCC2)C(NCCN2CCCC2)=N1 [Z087-0195, 3,4-bis((2-(pyrrolidin-1-yl)ethyl)amino)-1,2,5-thiadiazole 1,1-dioxide]	9%	21%	25%	80%	98.5%	
CCN1CCN(C2=NCCN2C(=O)C2CCCC2)CC1 [M059-1012, cyclopentyl(2-(4-ethylpiperazin-1-yl)-4,5-dihydro-1H-imidazol-1-yl)methanone]				51%		
O=C(C1CCCC1)N1CCN=C1N1CCCC1 [M059-0082, cyclopentyl(2-(pyrrolidin-1-yl)-4,5-dihydro-1H-imidazol-1-yl)methanone]						% protection at indicated concentration 0.1 nM (KCN-induced necrosis (Table 2)): 33%; % protection at indicated concentration 1 nM (KCN-induced necrosis (Table 2)): 25%; % protection at indicated concentration 10 nM (KCN-induced necrosis (Table 2)): 51%; % protection at indicated concentration 100 nM (KCN-induced necrosis (Table 2)): 79%; % protection at indicated concentration 1 μM (KCN-induced necrosis (Table 2)): 85%
